Source: patent US20170037471A1, “METHODS FOR DIAGNOSING & TREATING COPPER-DEPENDENT DISEASES” (Duke University, priority 2013, published 2017)
Residues, ends and D or L forms follow the SMILES beside them. *: point of attachment. Cbz = O=C(OCc1ccccc1)*; CHN2 = [N-]=[N+]=C*; tBu = CC(C)(C)*

How the values were obtained:
Ctr1 cleavage = Ctr1 cleavage in wild type and Cathepsin L-/- mouse embryonic fibroblasts, anti-Ctr1 immunoblot; type: cell-based; conditions: 10 μM, 16 hours, immunoblot (FIG. 7)
Method: Mouse embryonic fibroblasts from wild type and CatL^−/− littermates were cultured in medium supplemented with 10% fetal bovine serum and treated with DMSO or 10 μM of the cell permeable cysteine protease inhibitor E64d and harvested 16 hours later. Total proteins were isolated from the cells by homogenizing cells in ice cold PBS supplemented with 1% Triton-X, 0.1% SDS, and 1 mM EDTA. Cell debris was removed by centrifugation and the total amounts of soluble proteins were quantified in each sample. Equal amounts of proteins were separated on tris/glycine gradient gel, transferred to nitrocellulose membrane and blocked with 5% non-fat milk in Tris buffered saline supplemented with 0.05% Tween (TBST) for 1 h. Membranes were incubated with anti-Ctr1 antibody (1:1000) followed by anti-rabbit-HRP coupled antibody (1:5000) and bands detected by enhanced chemiluminescent substrate. Anti-Tubulin antibody was used as loading control.
Lanes 1 and 2 are duplicate samples from untreated wild type cells and lanes 5 and 6 are duplicate samples from untreated Cathepsin L knock out cells.

[1] = tested on: human Ctr1 protein containing the proline to alanine substitution at position 25 (Ctr1^P25A); test: Ctr1^P25A cleavage protection in stably transfected Ctr1-/- mouse embryonic fibroblasts, anti-Ctr1 immunoblot; type: cell-based; conditions: Ctr1-/- MEFs expressing human Ctr1^P25A, 10 μM, 16 hours, immunoblot (FIG. 8)
Method: Mouse embryonic fibroblasts from Ctr1^−/− embryos were stably transfected with plasmids expressing either the wild type human Ctr1 protein or the human Ctr1 protein containing the proline to alanine substitution at position 25 (Ctr1^P25A). Cells were cultured in medium supplemented with 20% fetal bovine serum and treated with DMSO or 10 μM cysteine protease […], Z-FY(t-Bu)-DMK and harvested 16 hours later. Total proteins were isolated from the cells by homogenizing cells in ice cold PBS supplemented with 1% Triton-X, 0.1% SDS, and 1 mM EDTA. Cell debris was removed by centrifugation and the total amounts of soluble proteins were quantified in each sample. Equal amounts of proteins were separated on tris/glycine gradient gel, transferred to nitrocellulose membrane and blocked with 5% non-fat milk in Tris buffered saline supplemented with 0.05% Tween (TBST) for 1 h. Membranes were incubated with anti-Ctr1 antibody (1:1000) followed by anti-rabbit-HRP coupled antibody (1:5000) and bands detected by enhanced chemiluminescent substrate. Anti-Actin antibody was used as loading control.

| SMILES | levels of cleaved Ctr1 (Ctr1 cleavage; Cathepsin L knock out MEFs) | levels of cleaved Ctr1 (Ctr1 cleavage; wild type MEFs) | reduction in full length form of Ctr1^P25A [1] |
| --- | --- | --- | --- |
| CCOC(=O)[C@H]1O[C@@H]1C(=O)N[C@@H](CC(C)C)C(=O)NCCC(C)C (relative stereo) [E64d, (2S,3S)-trans-Epoxysuccinyl-L-leucylamido-3-methylbutane ethyl ester] | not Cathepsin L knock out cells | dramatic reduction in the levels of cleaved Ctr1 | – |
| CC(C)(C)Oc1ccc(CC(NC(=O)C(Cc2ccccc2)NC(=O)OCc2ccccc2)C(=O)C=[N+]=[N-])cc1 (stereo not drawn) [Z-FY(t-Bu)-DMK, benzyl (1-((1-(4-(tert-butoxy)phenyl)-4-diazo-3-oxobutan-2-yl)amino)-1-oxo-3-phenylpropan-2-yl)carbamate] (Cbz-Phe-Tyr(tBu)-CHN2; configuration not given here) | – | – | can be alleviated by treatment with Cathepsin L inhibitors |
